US20240299436A1, “Use of Inosine in Preparing Drug For Treatment of Corona Virus Disease 2019” (PLA ACADEMY OF MILITARY MEDICAL SCIENCES, priority 2021, published 2024)

Key:
IL-6 = assay: Serum cytokine IL-6 level by ELISA in SARS-COV-2-infected mice; type: in vivo, mouse; conditions: inosine group
Protocol: In the process of cytokine storm (CRS), IL-6 is one of the most critical cytokines, and severity of the CRS is closely related to the increase in IL-6. In the cytokine storm induced by SARS-COV-2, IL-6 plays an important role. In order to determine whether the inosine could inhibit the secretion of IL-6, the level of cytokine IL-6 in mouse serum was determined by ELISA.

SARS-COV-2 [1] = assay: Lung tissue pathology by H&E staining in SARS-COV-2-infected mice; type: in vivo, mouse; conditions: oral inosine administration group vs SARS-COV-2 infection group
Text: The effect of inosine on pathological changes of lung tissue was observed by hematoxylin and eosin (H&E) staining.

SARS-COV-2 [2] = assay: Survival and body weight of SARS-COV-2-infected Balb/c mice; type: in vivo; conditions: preventive administration of inosine

OC[C@H]1O[C@@H](n2cnc3c(O)ncnc32)[C@H](O)[C@@H]1O [inosine]
level of cytokine IL-6 in mouse serum (IL-6): could inhibit the high expression of SARS-COV-2 induced IL-6 | inflammatory infiltration of lung tissue (SARS-COV-2 [1]): significantly improved | pathological changes of lung tissue (H&E staining) (SARS-COV-2 [1]): the lung tissues were structurally intact, alveolar space was clear, no congestion was noted in the pulmonary alveolar wall | day after infection on which body weights regained gradually (SARS-COV-2 [2]): 8 days | weight loss (SARS-COV-2 [2]; vs model group): lower weight loss | survival time of the Balb/c mice (SARS-COV-2 [2]; vs model group (died on days 4-7)): significantly prolonged
